# According to paper PMC4254627 (Bioorganic & medicinal chemistry letters, 2014):
# Entries after “also recorded” stand apart in the source; their conditions may differ.
# Columns and labels:
# [1] = Solubility / precipitation behaviour in pH 7.4 buffer; type: physicochemical
# Stability = type: in vitro ADME, human; conditions: 50% HP vs pH 7.4 buffer
Structure (SMILES),solubility in pH 7.4 buffer [1],reduction of half-life in HP compared to pH 7.4 PBS buffer (Stability)
CC(C)[C@H](N)C(=O)O[C@@H]1CC[C@@]2(O)[C@H]3Cc4ccc(O)c5c4[C@@]2(CCN3CC2CC2)[C@H]1O5 [Prodrug 6b],precipitate,–
CCC(C)[C@H](N)C(=O)O[C@@H]1CC[C@@]2(O)[C@H]3Cc4ccc(O)c5c4[C@@]2(CCN3CC2CC2)[C@H]1O5 (stereo partly drawn) [Prodrug 6d],highly insoluble; also recorded: precipitate,–
NCCC(=O)O[C@@H]1CC[C@@]2(O)[C@H]3Cc4ccc(O)c5c4[C@@]2(CCN3CC2CC2)[C@H]1O5 [Prodrug 6e],–,approximately 5.4 fold
